Measurements taken from patent US20090105562A1, “SYSTEM AND METHODS FOR SCREENING OR ANALYZING TARGETS” (TAIPEI VETERANS GENERAL HOSPITAL, priority 2007, published 2009).

Key:
Assay type in all cases: cell-based, rat
Bcl-2 = Bcl-2 protein expression in NSCs by western blot and immunocytochemistry
Description: After the treatment with IM, the cell lysates of the NSCs were collected and the concentration of protein was determined by using the Protein Assay kit (Bio-Rad, Hercules, Calif., USA). Cell extracts with sample buffer were boiled for 5 minutes and then separated by 10% SDS-PAGE gel. After electrophoresis, the gel was transferred onto a PVDF membrane for immunoblotting. The membrane was first blocked by incubation in non-fat milk at room temperature for 2 hours, then incubated with anti-Bcl-2 antibody (Upstate Biotechnology Inc, Waltham, Mass., USA), and anti-β actin (Chemicon International Inc, Temecula, Calif., USA) for 2 hours at room temperature, washed five times with Tris-Buffered Saline Tween-20 (TBST), and then incubated further at room temperature with horseradish peroxidase-conjugated secondary antibody for 2 hours. Then the membrane was washed six times with TBST and specific bands were made visible by chemiluminescence (Santa Cruz Biotechnology, Santa Cruz, Calif., USA).
(§1) Double-stranded, short interfering RNA (siRNA) of BDNF and Bcl-2 were chemically synthesized by Ambion Inc., Austin, Tex., USA). The sense and antisense sequences of BDNF were designed as follows: Sense: […]tt; Antisense: AGCTTAAAAAGAG CTGtt, starting from nucleotide 137 of the Bcl-2 sequence (accession number L14680). The sense and antisense sequences of Bcl-2 were designed as follows: Sense: GCGCUGGAUAUAACUUCUUtt; Antisense: AAGAAGUUAUAUC CAGCGCtt, starting from nucleotide 137 of the Bcl-2 sequence (accession number L14680). In this test, the siRNA control used was siRNA-Cy3 (QIAGEN; sense sequence: UUCUCCGAACGUGU CACGUdTdT-3′-Cy3 and the complement 5′-ACGUGACACGUUCGGAGAAdTdT-3′-Cy3) as an irrelevant control. The transfection of siRNA was performed using Lipofectamine 2000 (Invitrogen, Carlsbad, Calif., USA) according to the manufacturer's instructions. In brief, cells were harvested with 0.25% trypsin, 1 mM ethylenediaminetetraacetic acid (EDTA) in phosphate buffered saline (PBS) without Ca^2+ and Mg^2+, and plated in six-well plates at 10^5 per cm^2. Then 3.5 μl siRNA (100 μM solution) was mixed with 125 μl serum-free culture medium for 5 minutes at room temperature. During this incubation period, 5 μl of Lipofectamine 2000 was diluted in 125 μl serum-free culture medium. These two mixtures were combined, mixed gently, and incubated for 20 minutes at room temperature for complex formation. This 250 μl of siRNA-Lipofectamine mixture was then added into the cells in a final volume of 2.5 ml per well. The transfected cells were cultured and fed daily with fresh medium until they were assayed.
An avidin-biotin complex method was used for the immunohistochemical staining in the differentiated NSCs. Following washes with the 3% hydrogen peroxide, sodium azide and antigens were retrieved using a microwave. Each slide was then treated with antibodies for Bcl-2 (Upstate Biotechnology, Waltham, Mass., USA), Nestin (Chemicon, Temecula, Calif., USA), 4′, 6-diamidino-2-phenylindole (DAPI; Chemicon, Temecula, Calif., USA) and MAP2 (Chemicon, Temecula, Calif., USA). Immunoreactive signals were detected with a mixture of biotinylated rabbit anti-mouse IgG and Fluoresave (Calbiochem, La Jolla, Calif., USA) under confocal microscopy (Olympus, FV300). Each individual sample was analyzed in triplicate. Furthermore, apoptotic cells were identified by the TUNEL method (In Situ Cell Death Detection Kit, POD, Roche Boehringer Mannheim Corp., IN, USA) as described in Chiou et al., J. Immunol. 167, 4098-4103, 2001. Briefly, the cells with cover slips were washed with 1× phosphate buffered saline (PBS), fixed with 4% of paraformaldehyde for 10 minutes, permeabilized with 0.1% of triton X-100 for 5 mins, and incubated with the TUNEL reagent provided for 1 hour. Chromogenic development was then applied with 3-amino-9-ethyl-carbazole, and slides were counterstained with H & E stain. […]

NSCs = test: 5-HT in culture medium of NSCs by microdialysis with HPLC-ECD; conditions: p<0.05
Description: A microdialysis sampling system connected to the Petri dish was constructed in our laboratory according to the design originally described by Cheng et al., J. Chromatogr. A. 870, 405-411, 2000. The dialysis probe was made of a dialysis membrane 30 mm in length, with an outer diameter of 150 μm, and a nominal molecular weight cut-off of 13000. Ringer solution ([…]) was perfused through the probe at a flow-rate of 2 μl/min. Microdialysate samples were collected every 10 minutes. An HPLC-ED system (HTEC-500; Eicom, Kyoto, Japan) consisting of a three-electrode cell with an Ag/AgCl electrode as the reference electrode, a counter electrode and a graphite electrode as the working electrode was used to measure determine the levels of serotonin (5-HT). […] The column used for separation at room temperature (25° C.) was a PP-ODS (4.6×30 mm) (Eicom, Kyoto, Japan). The mobile phase, containing 0.1 M sodium phosphate buffer (0.1 M NaH2PO4: 0.1 M Na2HPO4=1000:160, v/v), 1% methanol, 500 mg/l sodium secanesulfonate and 50 mg/l EDTA, was adjusted to pH 6.0 with 5 M of NaOH with a flow rate of 0.5 ml/min. A volume of 10 μl of each microdialysate was injected manually into the chromatographic system and assayed on the same sampling day.

LPS-treated NSCs = test: Cell survival rate of LPS-treated NSCs
Description: IM was purchased from Sigma Chem. Co., St Louis, Mo., USA. NSCs were seeded on 24-well plates at a density of 2×10^4 cells/well in medium, followed by methyl thiazol tetrazolium assay (MTT assay) (Sigma-Aldrich Co., St Louis, Mo., USA) for cell viability. NSCs were incubated with 0.25 mg/ml MTT for 4 hours at 37° C. and the reaction was terminated by the addition of 100% isopropanol. The amount of MTT fromazon product was determined using a microplate reader and the absorbance was measured at 560 nm (SpectraMax 250, Molecular Devices, Sunnyvale, Calif., USA). NSCs were exposed to 0, 1, 2, 5, 10, 20, 30, 40, 50, 100, 200, and 300 μM of IM for 1, 3, 5, and 7 days, respectively. The activities of caspases 8 and 3 (Medical and Biological Laboratories Co., Ltd., Nagoya, Japan), and the concentration of IL-6, IL-1 and TNF-α (Pharmingen, San Diego, Calif., USA) were determined by ELISA kits and quantified by reading at 490 nm (MRX; Dynatech Laboratories, Chantilly, Va., USA). Each individual sample was analyzed in triplicate.
as §1, with “Then 3.5 μl siRNA (100 μM solution) was mixed with 125 μl serum-free culture medium for 5 minutes at room temperature. During this incubation period, 5 μl of Lipofectamine 2000 was diluted in 125 μl serum-free culture medium. These two mixtures were combined, mixed gently, and incubated for 20 minutes at room temperature for complex formation. This 250 μl of siRNA-Lipofectamine mixture was then added into the cells in a final volume of 2.5 ml per well. The transfected cells were cultured and fed daily with fresh medium until they were assayed.” left out

Row | SMILES | protein expression level of Bcl-2 in LPS-treated NSCs (Bcl-2; 3 μM IM vs 1, 2 μM IM-LPS-treated, only LPS-treated and control groups) | protein level of Bcl-2 (western blot) (Bcl-2; Day 3 IM-treated vs Day 3 non-IM-treated NSCs, p<0.05) | protein expression of Bcl-2 (immunohistochemistry) (Bcl-2; Day 7 IM-treated NSCs vs NSCs without IM treatment) | expression level of Bcl-2 protein (western blot) (Bcl-2; Day 7 IM-treated vs Day 3 or Day 5 IM-treated NSCs, p<0.05) | Bcl-2 expression in NSCs (Bcl-2; treatment with either agent alone) | 5-HT level in culture medium (NSCs; Day 7 and Day 14, IM-treated vs without IM-treatment NSCs) | cell survival rate in LPS-treated NSCs (LPS-treated NSCs; vs only LPS-treated NSCs, LPS 100 ng/ml) | Bcl-2 expression induced by IM in NSCs (Bcl-2; agent added to IM-treated NSCs) | production of 5-HT of IM-treated NSCs (NSCs; agent added, Day 7 and Day 14) | cell viability in LPS-treated NSCs with IM (LPS-treated NSCs; after added treatment with the agent)
1 | CN(C)CCCN1c2ccccc2CCc2ccccc21 [IM, imipramine] | significantly increased | higher | significantly increased | significantly increased | activate | significantly higher | significantly increases | – | – | –
2 | N#CC(=C(/N)Sc1ccccc1N)/C(C#N)=C(\N)Sc1ccccc1N [U0126] | – | – | – | – | – | – | – | effectively blocked | significantly diminished | dramatically decreased
